Laboratory results taken from US8163771B2, “11 β-HSD1 modulators” (Exelixis, Inc., priority 2008, dated 2012).

Target: T1, recombinant human 11 β-HSD1 (Homo sapiens, UniProt P28845)
T1 construct: made in house; host or cells: E. coli
Test: 11 β-HSD1 SPA Assay (Scintillation Proximity Assay)
Type: biochemical
How it was run: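 Scintillation proximity read-out of cortisol formed from 40 nM [3H]cortisone by purified recombinant human enzyme (30-100 nM, E. coli) with 1 mM NADPH, pH7.4, 2 hours at room temperature; beads with cortisol antibody and glycyrrhetinic acid stop the reaction, read next day. IC50 derived from inhibition normalised to background and maximal wells.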

T1 sequence (P28845 whole entry): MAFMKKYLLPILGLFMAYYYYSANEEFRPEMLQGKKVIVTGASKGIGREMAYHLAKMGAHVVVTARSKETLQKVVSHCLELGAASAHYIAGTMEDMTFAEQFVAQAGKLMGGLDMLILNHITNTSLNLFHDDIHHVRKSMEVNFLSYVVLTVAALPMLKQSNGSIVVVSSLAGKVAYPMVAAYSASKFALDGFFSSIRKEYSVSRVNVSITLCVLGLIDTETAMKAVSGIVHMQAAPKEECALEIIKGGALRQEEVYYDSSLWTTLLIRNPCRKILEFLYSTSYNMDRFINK

Q: Which IC50 does the source give for `CC(C)(Oc1cc(C(F)(F)F)ccc1F)C(=O)N[C@H]1C[C@H]2CC[C@@H](C1)N2c1ccc(C(=O)NCC(F)(F)F)cn1` [Example 190, 6-{3-endo-[(2-{[2-fluoro-5-(trifluoromethyl)phenyl]oxy}-2-methylpropanoyl)amino]-8-azabicyclo[3.2.1]oct-8-yl}-N-(2,2,2-trifiuoroethyl)pyridine-3-carboxamide] here?
A: < 0.2 µM

Q: For `CC(C)(Oc1ncc(Cl)cc1Cl)C(=O)N[C@H]1C[C@H]2CC[C@@H](C1)N2c1ccc(S(N)(=O)=O)cn1` [Example 191, N-{8-[5-(aminosulfonyl)pyridin-2-yl]-8-azabicyclo[3.2.1]oct-3-endo-yl}-2-[(3,5-dichloropyridin-2-yl)oxy]-2-methylpropanamide], which IC50 is on record?
A: < 0.2 µM

Q: With `CC(C)(Oc1ccc(C(F)(F)F)cn1)C(=O)N[C@H]1C[C@H]2CC[C@@H](C1)N2c1ccc(S(N)(=O)=O)cc1` [Example 192, N-{8-[4-(aminosulfonyl)phenyl]-8-azabicyclo[3.2.1]oct-3-endo-yl}-2-methyl-2-{[5-(trifluoromethyl)pyridin-2-yl]oxy}propanamide] as the molecule, how does the IC50 read?
A: < 2 µM

Q: `CC(C)(Oc1ncc(Cl)cc1Cl)C(=O)N[C@H]1C[C@H]2CC[C@@H](C1)N2c1ccc(S(C)(=O)=O)cn1` [Example 193, 2-[(3,5-dichloropyridin-2-yl)oxy]-2-methyl-N-{8-[5-(methylsulfonyl)pyridin-2-yl]-8-azabicyclo[3.2.1]oct-3-endo-yl}propanamide] was tested. Which IC50 did it give?
A: < 0.2 µM

Q: With `CC(C)(Oc1ncc(Cl)cc1F)C(=O)N[C@H]1C[C@H]2CC[C@@H](C1)N2c1ccc(S(C)(=O)=O)cn1` [Example 194, 2-[(5-chloro-3-fluoropyridin-2-yl)oxy]-2-methyl-N-{8-[5-(methylsulfonyl)pyridin-2-yl]-8-azabicyclo[3.2.1]oct-3-endo-yl}propanamide] as the molecule, how does the IC50 read?
A: < 2 µM

Q: How did the IC50 turn out when `CC(C)(Oc1ncc(Cl)cc1F)C(=O)N[C@H]1C[C@H]2CC[C@@H](C1)N2c1ccc(S(C)(=O)=O)cc1` [Example 195, 2-[(5-chloro-3-fluoropyridin-2-yl)oxy]-2-methyl-N-{8-[4-(methylsulfonyl)phenyl]-8-azabicyclo[3.2.1]oct-3-endo-yl}propanamide] was run?
A: < 2 µM

Q: For `CC(C)(Oc1ccc(C(F)(F)F)cn1)C(=O)N[C@H]1C[C@H]2CC[C@@H](C1)N2c1ccc(S(C)(=O)=O)cc1` [Example 196, 2-methyl-N-{8-[4-(methylsulfonyl)phenyl]-8-azabicyclo[3.2.1]oct-3-endo-yl}-2-{[5-(trifluoromethyl)pyridin-2-yl]oxy}propanamide], which IC50 is on record?
A: < 2 µM

Q: With `CC(C)(Oc1cc(Cl)c(Cl)cc1Cl)C(=O)N[C@H]1C[C@H]2CC[C@@H](C1)N2c1ccc(S(C)(=O)=O)cn1` [Example 197, 2-methyl-N-{8-[5-(methylsulfonyl)pyridin-2-yl]-8-azabicyclo[3.2.1]oct-3-endo-yl}-2-[(2,4,5-trichlorophenyl)oxy]propanamide] as the molecule, how does the IC50 read?
A: < 0.2 µM

Q: `CC(C)(Oc1cc(Cl)c(Cl)cc1Cl)C(=O)N[C@H]1C[C@H]2CC[C@@H](C1)N2c1ccc(S(N)(=O)=O)cn1` [Example 198, N-{8-[5-(aminosulfonyl)pyridin-2-yl]-8-azabicyclo[3.2.1]oct-3-endo-yl}-2-methyl-2-[(2,4,5-trichlorophenyl)oxy]propanamide] was tested. Which IC50 did it give?
A: < 0.2 µM

Q: Which IC50 does the source give for `CC(C)(Oc1cc(Cl)c(Cl)cc1Cl)C(=O)N[C@H]1C[C@H]2CC[C@@H](C1)N2c1ccc(S(C)(=O)=O)cc1` [Example 199, 2-methyl-N-{8-[4-(methylsulfonyl)phenyl]-8-azabicyclo[3.2.1]oct-3-endo-yl}-2-[(2,4,5-trichlorophenyl)oxy]propanamide] here?
A: < 0.2 µM

Q: With `CC(C)(Oc1ccc(F)cc1F)C(=O)N[C@H]1C[C@H]2CC[C@@H](C1)N2c1ccc(S(C)(=O)=O)cn1` [Example 200, 2-[(2,4-difluorophenyl)oxy]-2-methyl-N-{8-[5-(methylsulfonyl)pyridin-2-yl]-8-azabicyclo[3.2.1]oct-3-endo-yl}propanamide] as the molecule, how does the IC50 read?
A: < 0.2 µM

Q: With `CC(C)(Oc1ccc(Cl)cc1)C(=O)N[C@H]1C[C@H]2CC[C@@H](C1)N2c1ccc(S(C)(=O)=O)cn1` [Example 201, 2-[(4-chlorophenyl)oxy]-2-methyl-N-{8-[5-(methylsulfonyl)pyridin-2-yl]-8-azabicyclo[3.2.1]oct-3-endo-yl}propanamide] as the molecule, how does the IC50 read?
A: < 0.2 µM

Q: How did the IC50 turn out when `CC(C)(Oc1ccc(Cl)cc1)C(=O)N[C@H]1C[C@H]2CC[C@@H](C1)N2c1ccc(S(N)(=O)=O)cn1` [Example 202, N-{8-[5-(aminosulfonyl)pyridin-2-yl]-8-azabicyclo[3.2.1]oct-3-endo-yl}-2-[(4-chlorophenyl)oxy]-2-methylpropanamide] was run?
A: < 0.2 µM

Q: Which IC50 does the source give for `CC(C)(Oc1ccc(Cl)cc1)C(=O)N[C@H]1C[C@H]2CC[C@@H](C1)N2c1ccc(S(C)(=O)=O)cc1` [Example 203, 2-[(4-chlorophenyl)oxy]-2-methyl-N-{8-[4-(methylsulfonyl)phenyl]-8-azabicyclo[3.2.1]oct-3-endo-yl}propanamide] here?
A: < 2 µM

Q: For `CC(C)(Oc1ccc(Cl)c(Cl)c1)C(=O)N[C@H]1C[C@H]2CC[C@@H](C1)N2c1ccc(S(C)(=O)=O)cn1` [Example 204, 2-[(3,4-dichlorophenyl)oxy]-2-methyl-N-{8-[5-(methylsulfonyl)pyridin-2-yl]-8-azabicyclo[3.2.1]oct-3-endo-yl}propanamide], which IC50 is on record?
A: < 0.2 µM

Q: How did the IC50 turn out when `CC(C)(Oc1ccc(Cl)c(Cl)c1)C(=O)N[C@H]1C[C@H]2CC[C@@H](C1)N2c1ccc(S(N)(=O)=O)cn1` [Example 205, N-{8-[5-(aminosulfonyl)pyridin-2-yl]-8-azabicyclo[3.2.1]oct-3-endo-yl}-2-[(3,4-dichlorophenyl)oxy]-2-methylpropanamide] was run?
A: < 0.2 µM

Q: `CC(C)(Oc1ccc(Cl)c(Cl)c1)C(=O)N[C@H]1C[C@H]2CC[C@@H](C1)N2c1ccc(S(C)(=O)=O)cc1` [Example 206, 2-[(3,4-dichlorophenyl)oxy]-2-methyl-N-{8-[4-(methylsulfonyl)phenyl]-8-azabicyclo[3.2.1]oct-3-endo-yl}propanamide] was tested. Which IC50 did it give?
A: < 2 µM

Q: Which IC50 does the source give for `CC(C)(Oc1ccc(F)c(F)c1)C(=O)N[C@H]1C[C@H]2CC[C@@H](C1)N2c1ccc(S(C)(=O)=O)cn1` [Example 207, 2-[(3,4-difluorophenyl)oxy]-2-methyl-N-{8-[5-(methylsulfonyl)pyridin-2-yl]-8-azabicyclo[3.2.1]oct-3-endo-yl}propanamide] here?
A: < 2 µM

Q: With `CC(C)(Oc1ccc(F)c(F)c1)C(=O)N[C@H]1C[C@H]2CC[C@@H](C1)N2c1ccc(S(N)(=O)=O)cn1` [Example 208, N-{8-[5-(aminosulfonyl)pyridin-2-yl]-8-azabicyclo[3.2.1]oct-3-endo-yl}-2-[(3,4-difluorophenyl)oxy]-2-methylpropanamide] as the molecule, how does the IC50 read?
A: < 2 µM

Q: With `CC(C)(Oc1ccc(F)c(F)c1)C(=O)N[C@H]1C[C@H]2CC[C@@H](C1)N2c1ccc(S(C)(=O)=O)cc1` [Example 209, 2-[(3,4-difluorophenyl)oxy]-2-methyl-N-{8-[4-(methylsulfonyl)phenyl]-8-azabicyclo[3.2.1]oct-3-endo-yl}propanamide] as the molecule, how does the IC50 read?
A: < 2 µM

Q: Which IC50 does the source give for `CC(C)(Oc1ccc(F)c(F)c1)C(=O)N[C@H]1C[C@H]2CC[C@@H](C1)N2c1ccc(C(=O)NCC(F)(F)F)cc1` [Example 210, 4-[3-endo-({2-[(3,4-difluorophenyl)oxy]-2-methylpropanoyl}amino)-8-azabicyclo[3.2.1]oct-8-yl]-N-(2,2,2-trifluoroethyl)benzamide] here?
A: < 0.2 µM

Q: `CC(C)(Oc1ccc(Cl)cc1C(F)(F)F)C(=O)N[C@H]1C[C@H]2CC[C@@H](C1)N2c1ccc(S(N)(=O)=O)cn1` [Example 211, N-{8-[5-(aminosulfonyl)pyridin-2-yl]-8-azabicyclo[3.2.1]oct-3-endo-yl}-2-{[4-chloro-2-(trifluoromethyl)phenyl]oxy}-2-methylpropanamide] was tested. Which IC50 did it give?
A: < 0.2 µM

Q: How did the IC50 turn out when `Cc1ccc(OC(C)(C)C(=O)N[C@H]2C[C@H]3CC[C@@H](C2)N3c2ccc(S(C)(=O)=O)cn2)c(Cl)c1` [Example 212, 2-[(2-chloro-4-methylphenyl)oxy]-2-methyl-N-{8-[5-(methylsulfonyl)pyridin-2-yl]-8-azabicyclo[3.2.1]oct-3-endo-yl}propanamide] was run?
A: < 0.2 µM

Q: `Cc1ccc(OC(C)(C)C(=O)N[C@H]2C[C@H]3CC[C@@H](C2)N3c2ccc(S(N)(=O)=O)cn2)c(Cl)c1` [Example 213, N-{8-[5-(aminosulfonyl)pyridin-2-yl]-8-azabicyclo[3.2.1]oct-3-endo-yl}-2-[(2-chloro-4-methylphenyl)oxy]-2-methylpropanamide] was tested. Which IC50 did it give?
A: < 0.2 µM

Q: With `Cc1ccc(OC(C)(C)C(=O)N[C@H]2C[C@H]3CC[C@@H](C2)N3c2ccc(S(C)(=O)=O)cc2)c(Cl)c1` [Example 214, 2-[(2-chloro-4-methylphenyl)oxy]-2-methyl-N-{8-[4-(methylsulfonyl)phenyl]-8-azabicyclo[3.2.1]oct-3-endo-yl}propanamide] as the molecule, how does the IC50 read?
A: < 0.2 µM

Q: With `CC(C)(Oc1ccc(F)c(Cl)c1Cl)C(=O)N[C@H]1C[C@H]2CC[C@@H](C1)N2c1ccc(S(N)(=O)=O)cn1` [Example 215, N-{8-[5-(aminosulfonyl)pyridin-2-yl]-8-azabicyclo[3.2.1]oct-3-endo-yl}-2-[(2,3-dichloro-4-fluorophenyl)oxy]-2-methylpropanamide] as the molecule, how does the IC50 read?
A: < 0.2 µM

Q: How did the IC50 turn out when `CC(C)(Oc1cc(F)c(F)cc1F)C(=O)N[C@H]1C[C@H]2CC[C@@H](C1)N2c1ccc(S(N)(=O)=O)cn1` [Example 216, N-{8-[5-(aminosulfonyl)pyridin-2-yl]-8-azabicyclo[3.2.1]oct-3-endo-yl}-2-methyl-2-[(2,4,5-trifluorophenyl)oxy]propanamide] was run?
A: < 0.2 µM

Q: For `Cc1cc(F)ccc1OC(C)(C)C(=O)N[C@H]1C[C@H]2CC[C@@H](C1)N2c1ccc(S(C)(=O)=O)cn1` [Example 217, 2-[(4-fluoro-2-methylphenyl)oxy]-2-methyl-N-{8-[5-(methylsulfonyl)pyridin-2-yl]-8-azabicyclo[3.2.1]oct-3-endo-yl}propanamide], which IC50 is on record?
A: < 0.2 µM
